Measurements taken from patent publication US20210317165A1, “ZP3 FRAGMENTS IN IMMUNOTHERAPY OF OVARIAN CANCER” (LABORATOIRE HRA-PHARMA, priority 2018, published 2021).

System: ZP3-specific TCD8
Assay: ELISPOT IFNγ of spleen TCD8 stimulated ex vivo with APC pulsed with each peptide separately
Assay type: in vivo, HLA-A2/DR1 transgenic mice
Settings: mice immunized with pool A+B, restimulation with each peptide separately
Description: HLA-A2/DR1 transgenic mice received three subcutaneous administrations of peptides pool and GM-CSF/CpG adjuvant as follow:
A first group (group 1) of mice received 100 μg/mice of a pool of peptides A+B (SEQ ID NO: 1, 2, 4, 5, 6, 10, 12, 13, 15 and 17) and GM-CSF adjuvant at Day 0 (D0). At D1, CpG wad injected. 100 μg/mice of pool of peptides A+B was injected at D14 and D30. Mice were sacrificed and analyzed at D40.
The ZP3-specific TCD8 response was measured by ex vivo stimulation of TCD8 from spleen of mice with APC pulsed with peptides (each peptides separately). The number of activated TCD8 cells was measured by ELISPOT IFNγ.

“FTVDVFHFA (Peptide of human ZP3) [Peptide 5, hZP3 fragment, position 263]” was tested, and the “ZP3-specific TCD8 response” value (FIG. 2, listed as SEQ ID NO: 5) was “strong specific TCD8 response (statistically significant)”.

With “LRLMEENWNA (Peptide of human ZP3) [Peptide 6, hZP3 fragment, position 174]” the “ZP3-specific TCD8 response” value (FIG. 2, listed as SEQ ID NO: 6) was “strong specific TCD8 response (statistically significant)”.

In the case of “NMIYITCHL (Peptide of human ZP3) [Peptide 13, hZP3 fragment, position 276]”, the “ZP3-specific TCD8 response” value (FIG. 2, listed as SEQ ID NO: 13) is reported as “strong specific TCD8 response (statistically significant)”.
